Results reported in patent US12486301B2, “8-fluoro-4-alkylumbelliferyl α-D-glucopyranoside, biological sterilization indicator including the same and its use in a method of determining efficacy of a sterilization process” (Solventum Intellectual Properties Company, priority 2019, dated 2025).

System: Geobacillus stearothermophilus spores (ATCC 7953)
Assay: Fluorescence from enzyme substrates incubated with Geobacillus stearothermophilus spores in culture media
Assay type: cell-based
Settings: 5×10^3 spores, substrate 0.1 mg/mL, 60° C.; for MEASURED FLUORESCENCE, RFU 10 sec: 360 nm excitation/450 nm emission
Experimental: Culture media was prepared by dissolving 5 g/L peptone C (BD 211921) and 12 g/L phytone peptone (BD BBL 211906) in deionized water. The pH was adjusted with 1 N NaOH or 0.1 N HCl, the media brought to volume, and then filter sterilized with a 0.22 micron PES filter. Stock solutions ([…]) of 8′-fluoro-4′-methylumbelliferyl-α-D-glucopyranoside, 6′-fluoro-4′-methylumbelliferyl-α-D-glucopyranoside, and 4-methylumbelliferyl-α-D-glucopyranoside were prepared in DMSO. The aforementioned substrates were added to culture media at a final concentration of 0.1 mg/ml and media were then 0.22 μm filter sterilized.
Culture media (pH 6) containing 8′-fluoro-4′-methylumbelliferyl-[…]-D-glucopyranoside (0.1 mg/mL) was added to two wells (100 microliters per well) of a black 96-well microtiter plate with (NUNC #165301, Thermo Fisher Scientific). A 5 microliter aqueous suspension containing 5×10^3 Geobacillus stearothermophilus spores (ATCC 7953) was added to each well of the microtiter plate. Next, the contents of each well were mixed using a multiple aspiration/delivery sequence with the pipet. […] The top of the plate was covered with an optically clear sealing film (product #4311971, Applied Biosystems Corporation, Foster City, California). The plate was warmed at 60° C. and shaken in a linear direction. Fluorescence readings (360 nm excitation/450 nm emission at 50% gain) were taken from the top of the plate. A reading was taken at an initial time point of 10 seconds and then at +1 minute intervals thereafter. A Synergy Neo2 fluorescence plate reader (BioTek Company, Winooski, Vermont) was used. In Table 1, the mean fluorescence values detected (RFU) at times of 10 seconds, +5 minutes, +10 minutes, and +30 minutes are reported. The mean fluorescence values detected for the control wells were 614 RFU at 10 seconds; 547 RFU at +5 minutes; 504 RFU at +10 minutes, and 438 RFU at +30 minutes.
Culture media (pH 7) containing 8′-fluoro-4′-methylumbelliferyl-[…]-D-glucopyranoside (0.1 mg/mL) was added to two wells (100 microliters per well) of a black 96-well microtiter plate with (NUNC #165301, Thermo Fisher Scientific). A 5 microliter aqueous suspension containing 5×10^3 Geobacillus stearothermophilus spores (ATCC 7953) was added to each well of the microtiter plate. Next, the contents of each well were mixed using a multiple aspiration/delivery sequence with the pipet. […] The top of the plate was covered with an optically clear sealing film (product #4311971, Applied Biosystems Corporation). The plate was warmed at 60° C. and shaken in a linear direction. Fluorescence readings (360 nm excitation/450 nm emission at 50% gain) were taken from the top of the plate. A reading was taken at an initial time point of 10 seconds and then at +1 minute intervals thereafter. A Synergy Neo2 fluorescence plate reader (BioTek Company) was used. In Table 2, the mean fluorescence values detected (RFU) at times of 10 seconds, +5 minutes, +10 minutes, and +30 minutes are reported. The mean fluorescence values detected for the control wells were 601 RFU at 10 seconds; 533 RFU at +5 minutes; 495 RFU at +10 minutes, and 430 RFU at +30 minutes.
Culture media (pH 8) containing 8′-fluoro-4′-methylumbelliferyl-[…]-D-glucopyranoside (0.1 mg/mL) was added to two wells (100 microliters per well) of a black 96-well microtiter plate with (NUNC #165301, Thermo Fisher Scientific). A 5 microliter aqueous suspension containing 5×10^3 Geobacillus stearothermophilus spores (ATCC 7953) was added to each well of the microtiter plate. Next, the contents of each well were mixed using a multiple aspiration/delivery sequence with the pipet. […] The top of the plate was covered with an optically clear sealing film (product #4311971, Applied Biosystems Corporation). The plate was warmed at 60° C. and shaken in a linear direction. Fluorescence readings (360 nm excitation/450 nm emission at 50% gain) were taken from the top of the plate. […]

| SMILES | MEASURED FLUORESCENCE, RFU 10 sec (pH 6 culture media) [RFU] | MEASURED FLUORESCENCE, RFU +10 min (pH 6 culture media) [RFU] | MEASURED FLUORESCENCE, RFU +5 min (pH 7 culture media) [RFU] | MEASURED FLUORESCENCE, RFU +10 min (pH 7 culture media) [RFU] | MEASURED FLUORESCENCE, RFU +30 min (pH 7 culture media) [RFU] | MEASURED FLUORESCENCE, RFU +30 min (pH 8 culture media) [RFU] |
| --- | --- | --- | --- | --- | --- | --- |
| Cc1cc(=O)oc2c(F)c(O[C@H]3O[C@H](CO)[C@@H](O)[C@H](O)[C@H]3O)ccc12 [Example 1, 8′-Fluoro-4′-methylumbelliferyl […]-D-glucopyranoside] | 806 | 1909 | 1474 | 2681 | 10190 | 7477 |
| Cc1cc(=O)oc2cc(O[C@H]3O[C@H](CO)[C@@H](O)[C@H](O)[C@H]3O)c(F)cc12 [Example 6F-MUG, 6′-Fluoro-4′-methylumbelliferyl […]-D-glucopyranoside] | 886 | 1903 | 1130 | 1855 | 8708 | 5638 |
| Cc1cc(=O)oc2cc(O[C@H]3O[C@H](CO)[C@@H](O)[C@H](O)[C@H]3O)ccc12 [MUG, 4′-methylumbelliferyl-α-D-glucopyranoside] | 646 | 588 | 634 | 655 | 1219 | 1725 |
